In US7511041B2, “Fused azole-pyrimidine derivatives” (Bayer Pharmaceuticals Corporation, priority 2002, dated 2009):
Read-outs that look alike come from different tables or passages of the source.

Legend:
[1] = target: T1, Recombinant human PI3Kγ (full length human PI3K p110γ) (Homo sapiens, UniProt P48736); assay: Kinase assay of PI3Kγ (solid-phase lipid kinase assay); type: biochemical
T1 construct: full length human PI3K p110γ fused with a His6-tag at the C-terminus; His6 (C); purchased ALEXIS BIOCHEMICALS #201-055-C010; host or cells: S. frugiperda 9 insect cells

[2] = in vitro PI3K-γ inhibitory activity, class symbols, read-out: in vitro PI3K-gamma
[3] = Table 1, isozyme not given, read-out: in vitro
[4] = in vitro PI3K-γ inhibitory activity, class symbols A-D, read-out: in vitro PI3K-gamma

T1 sequence (P48736 whole entry, the tested form may be a part): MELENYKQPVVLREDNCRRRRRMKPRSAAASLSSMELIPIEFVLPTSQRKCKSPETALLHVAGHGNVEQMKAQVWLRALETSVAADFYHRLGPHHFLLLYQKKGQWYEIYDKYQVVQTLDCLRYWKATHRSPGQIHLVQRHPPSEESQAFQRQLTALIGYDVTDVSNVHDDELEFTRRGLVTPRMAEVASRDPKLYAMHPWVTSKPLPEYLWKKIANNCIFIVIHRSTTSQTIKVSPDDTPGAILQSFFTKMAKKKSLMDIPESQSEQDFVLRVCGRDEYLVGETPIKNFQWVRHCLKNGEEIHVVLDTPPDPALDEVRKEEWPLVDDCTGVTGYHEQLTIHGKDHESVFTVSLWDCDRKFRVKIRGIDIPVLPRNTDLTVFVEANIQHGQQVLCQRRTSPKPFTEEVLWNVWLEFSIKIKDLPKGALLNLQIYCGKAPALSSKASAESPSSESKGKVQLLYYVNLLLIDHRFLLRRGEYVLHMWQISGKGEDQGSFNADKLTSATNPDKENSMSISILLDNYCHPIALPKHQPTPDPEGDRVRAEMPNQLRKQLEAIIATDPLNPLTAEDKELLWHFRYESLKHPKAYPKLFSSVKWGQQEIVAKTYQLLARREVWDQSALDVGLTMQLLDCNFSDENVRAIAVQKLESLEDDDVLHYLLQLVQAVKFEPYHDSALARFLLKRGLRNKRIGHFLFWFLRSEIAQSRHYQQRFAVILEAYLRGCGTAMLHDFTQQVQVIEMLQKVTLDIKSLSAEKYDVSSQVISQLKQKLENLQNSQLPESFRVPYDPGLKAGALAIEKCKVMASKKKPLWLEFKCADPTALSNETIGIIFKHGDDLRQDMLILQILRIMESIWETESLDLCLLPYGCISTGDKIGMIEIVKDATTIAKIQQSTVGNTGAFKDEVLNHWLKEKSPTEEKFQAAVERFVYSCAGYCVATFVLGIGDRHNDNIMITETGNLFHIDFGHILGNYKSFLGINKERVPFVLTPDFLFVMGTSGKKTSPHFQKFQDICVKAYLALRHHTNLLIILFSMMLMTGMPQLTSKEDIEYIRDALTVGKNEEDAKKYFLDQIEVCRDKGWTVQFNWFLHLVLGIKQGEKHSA

| Structure (SMILES) | melting point | IC50 [1, 2] | IC50 [1, 3] | IC50 [1, 4] |
| --- | --- | --- | --- | --- |
| COc1ccc2c(c1OC)N=C(NC(=O)c1ccc3[nH]cnc3c1)N1CCN=C21 [Example 2-49] | 289 °C (dec.) | < 100 nM |  |  |
| O=[N+]([O-])c1ccc2c(c1)C1=NCCN1C(/C=C(\O)c1cccnc1)=N2 [Example 1-192] | 306 °C |  | 500 to 2000 nM |  |
| Cl.O/C(=C\C1=Nc2ccc(Br)cc2C2=NCCN12)c1cccnc1 [Example 1-129] | > 300 °C |  | 100 to 500 nM |  |
| CCC(C)[C@H]1CN2C(NC(=O)c3cccnc3)=Nc3ccccc3C2=N1.Cl (stereo partly shown) [Example 2-364] | 230 to 240 °C |  |  | > 2000 nM |
| Cc1nocc1C(=O)NC1=Nc2ccccc2C2=NCCN12.Cl [Example 2-186] | 285 °C (dec.) | 100 to 500 nM |  |  |
| COc1cccc(C(=O)NC2=Nc3ccccc3C3=NCCN23)c1.O=C(O)C(F)(F)F [Example 2-234] | 209 to 211 °C |  |  | 500 to 2000 nM |
| COc1cc(C(=O)NC2=Nc3ccccc3C3=NCCN23)cc(OC)c1OC.Cl [Example 2-240] | 291 °C (dec.) |  |  | > 2000 nM |
| Cc1cc(Br)c2c(c1)C1=NCCN1C(NC(=O)c1ccc3[nH]cnc3c1)=N2 [Example 2-75] | > 290 °C | 100 to 500 nM |  |  |
| O/C(=C\C1=Nc2c(Br)cccc2C2=NCCN12)c1cccnc1 [Example 1-73] | 120 °C (dec.) |  | 100 to 500 nM |  |
| Cc1cccc(C(=O)NC2=Nc3ccccc3C3=NCCN23)c1 [Example 2-216] | 201 to 203 °C |  |  | > 2000 nM |
| O=C(NC1=Nc2ccccc2C2=NCCN12)C1CCCCC1 [Example 2-335] | 170 to 172 °C |  |  | > 2000 nM |
| CC(=O)Nc1ccc(/C(O)=C/C2=Nc3ccccc3C3=NCCN23)cc1 [Example 1-133] | > 300 °C |  | 100 to 500 nM |  |
| COc1ccc2c(c1)N=C(NC(=O)c1ccc3[nH]cnc3c1)N1CCN=C21 [Example 2-25] | 186 °C | < 100 nM |  |  |
| O=C(NC1=Nc2ccc(Cl)cc2C2=NCCN12)c1cccnc1 [Example 2-84] | 210 °C | 100 to 500 nM |  |  |
| O=C(NC1=Nc2ccc(N3CCOCC3)cc2C2=NCCN12)c1cccs1 [Example 2-348] | 124 °C |  |  | > 2000 nM |
| COc1ccc(CC(=O)NC2=Nc3ccccc3C3=NCCN23)cc1 [Example 2-323] | 167 to 168 °C |  |  | > 2000 nM |
| CC(=O)Nc1ccc(C(=O)NC2=Nc3cc(N4CCOCC4)ccc3C3=NCCN23)cc1.Cl [Example 2-9] | 249 °C | 100 to 500 nM |  |  |
| Cc1cc(C(=O)NC2=Nc3ccccc3C3=NCCN23)cc(C)c1[N+](=O)[O-] [Example 2-222] | 277 °C (dec.) |  |  | > 2000 nM |
| O=C(NC1=Nc2ccc(O)cc2C2=NCCN12)c1cccnc1 [Example 2-210] | > 300 °C |  |  | 100 to 500 nM |
| COc1ccc2c(c1)C1=NCCN1C(/C=C(\O)c1cccnc1)=N2 [Example 1-126] | 199 °C |  | 100 to 500 nM |  |
| CCCNc1ccc(/C(O)=C/C2=Nc3ccccc3C3=NCCN23)cn1 [Example 1-140] | 197 °C |  | 100 to 500 nM |  |
| COc1cccc2c1N=C(NC(=O)c1cncc(O)c1)N1CCN=C21.Cl [Example 2-122] | 285 °C (dec.) | < 100 nM |  |  |
| O=C(NC1=Nc2ccccc2C2=NCCN12)c1ccc(Cl)cc1 [Example 2-229] | 226 to 228 °C |  |  | > 2000 nM |
| COc1cc2c(c(OC)c1C)N=C(NC(=O)c1ccc(NC(C)=O)nc1)N1CCN=C21 [Example 2-79] | > 310 °C | 100 to 500 nM |  |  |
| O=C(NC1=Nc2ccccc2C2=NCCN12)c1ccc2ncsc2c1 [Example 2-312] | 303 to 305 °C |  |  | > 2000 nM |
| N#Cc1ccc(C(=O)NC2=Nc3ccccc3C3=NCCN23)cc1.O=C(O)C(F)(F)F [Example 2-256] | 248 to 250 °C |  |  | > 2000 nM |
